Data published in patent US9221800B2, “Isoxazole treatments for diabetes” (The Board of Regents of the University of Texas System, priority 2011, dated 2015).
Entries after “also recorded” stand apart in the source; their conditions may differ.

Experiments:
[1] = tested on: human islets; test: Gene expression by quantitative RT-PCR in cultured human islets; assay type: cell-based
Procedure: MIN6 cells were cultured in DMEM (Gibco), containing 25 mM glucose, 10% fetal bovine serum, 10 mM Hepes pH 7.4, 10.2 mM L-glutamine, […] sodium pyruvate, 2.5 mM β-mercaptoethanol, 100 U/ml penicillin and 100 μg/ml streptomycin at 37° C. in 10% CO2. Human islets were obtained from the ICR Basic Science Islet Distribution and from the University of Alabama, Birmingham Islet Resource Facility and were cultured in RPMI 1640 with 11 mM glucose for up to 1 year. The medium was changed twice weekly and the islets were subcultured when they reached 90% confluence. For Isx treatments, cells were incubated in medium containing either Isx or the equivalent volume of DMSO vehicle (0.04%). To measure GSIS, cells were placed in Krebs-Ringer bicarbonate/Hepes containing 0.1% bovine serum albumin and 2 mM glucose for 2 h, and stimulated for 15 min with 20 mM glucose, a 1× amino-acid mixture (concentrations as in DMEM), or 50 nM Exendin-4. U0126 (10 μM), nifedipine (3 μM), BAPTA (10 μM), wortmanin (0.5 μM) or FK506 (0.1 μM) were added for 1-24 h as indicated.
Total RNA was extracted from human islet preparations with TRI reagent according to manufacturer's protocol (Ambion). cDNA was prepared from total RNA by a mixture of random hexamer- and oligo-dT-primed reverse transcription (iScript Biorad). The expression of insulin and glucagon relative to 18S RNA was evaluated by TaqMan assays (Applied Biosystems). Relative expression of pancreatic factors was determined using Power SYBR Green PCR Master Mix (Applied Bio systems). Primer sequences for qRT-PCR are in STable 1. SYBR Green and TaqMan probe-based PCR was performed using the ABI 7500 DNA Sequence Detection System with standard fluorescent chemistries and thermal cycling conditions specified by the manufacturer: 50° C. for 2 min, 95° C. for 10 min for one cycle and an additional 40 cycles at 95° C. for 15 sec, and then 58° C. for 1 min.

[2] = tested on: MIN6 cells; test: Immunoblotting of MIN6 whole cell lysates; assay type: cell-based, mouse
Procedure: FIGS. 2[…]-1) activates insulin expression and improves β cell function in MIN6 cells. (FIG. 2A) Dose-response relationship of MIN6 cells treated with 5-80 μM Isx for 24 h or DMSO (0.08%-similar to the highest concentration of Isx). Whole cell lysates (40 μg) were subjected to immunoblotting using antibodies against BETA2NeuroD1, MafA, PDX-1, pERK1/2 (pT183/[…]), acetylated histones […] and ACH3K9 and total histone H3. (FIG. 2B) Quantitative RT-PCR of murine insulin1 and insulin2 gene expression in MIN6 cells treated with Isx for 24 h as in FIG. 2A. […] (FIG. 2D) Insulin content measured by ELISA in MIN6 cells treated with Isx for 24 or 48 h. (FIG. 2E) GSIS induced by glucose, amino acids (AA) and Exendin-4 (Ex-4) singly or in combination in MIN6 cells pretreated with Isx for 48 h. FIGS. 4[…]-1) is a HAT activator. (FIG. 4A) Immunoblots of acetylated histones in MIN6 cells pretreated with the indicated inhibitors for 16 h and then treated with vehicle or Isx. (FIGS. 4B-C) HDAC (FIG. 4B) and HAT (FIG. 4C) activities in 50 μg of nuclear extract protein from MIN6 cells treated with Isx or DMSO for 24 h. Trichostatin A (TSA; 2 μM) was added at as a positive control. HeLa nuclear extract also was included as a positive control. […] Statistical analysis was performed using Student's t test as in FIGS. 1A-E. *P<0.05; **P<0.01. (FIG. 4G) Simplified view of the actions of Isx. FIG. 6. Time course of […]-1) treatment in MIN6 cells. Immunoblotting of whole cell extracts from MIN6 cells grown for 24 h in complete DMEM containing […] and treated with 20 μM Isx for from 15 min to 24 h. The control (0 min) was treated with DMSO for 24 h. MIN6 cells were cultured in DMEM (Gibco), containing 25 mM glucose, 10% fetal bovine serum, 10 mM Hepes pH 7.4, 10.2 mM L-glutamine, […] sodium pyruvate, 2.5 mM β-mercaptoethanol, 100 U/ml penicillin and 100 μg/ml streptomycin at 37° C. in 10% CO2. Human islets were obtained from the ICR Basic Science Islet Distribution and from the University of Alabama, Birmingham Islet Resource Facility and were cultured in RPMI 1640 with 11 mM glucose for up to 1 year. The medium was changed twice weekly and the islets were subcultured when they reached 90% confluence. For Isx treatments, cells were incubated in medium containing either Isx or the equivalent volume of DMSO vehicle (0.04%). To measure GSIS, cells were placed in Krebs-Ringer bicarbonate/Hepes containing 0.1% bovine serum albumin and 2 mM glucose for 2 h, and stimulated for 15 min with 20 mM glucose, a 1× amino-acid mixture (concentrations as in DMEM), or 50 nM Exendin-4.

[3] = tested on: MIN6 cells; test: Quantitative RT-PCR of endogenous insulin gene expression in MIN6 cells; assay type: cell-based, mouse
Procedure: FIGS. 2A-E. Isx (LSH-1) activates insulin expression and improves β cell function in MIN6 cells. (FIG. 2A) Dose-response relationship of MIN6 cells treated with 5-80 μM Isx for 24 h or DMSO (0.08%—similar to the highest concentration of Isx). Whole cell lysates (40 μg) were subjected to immunoblotting using antibodies against BETA2NeuroD1, MafA, PDX-1, pERK1/2 (pT183/pY185), acetylated histones ACH4-K5K8K12K16 and ACH3K9 and total histone H3. (FIG. 2B) Quantitative RT-PCR of murine insulin1 and insulin2 gene expression in MIN6 cells treated with Isx for 24 h as in FIG. 2A. (FIG. 2C) GSIS in 15 min from MIN6 cells pretreated with Isx or vehicle for 48 h in the presence or absence of the MEK1/2 inhibitor U0126 for 24 h. (FIG. 2D) Insulin content measured by ELISA in MIN6 cells treated with Isx for 24 or 48 h. […]
Total RNA was extracted from human islet preparations with TRI reagent according to manufacturer's protocol (Ambion). cDNA was prepared from total RNA by a mixture of random hexamer- and oligo-dT-primed reverse transcription (iScript Biorad). The expression of insulin and glucagon relative to 18S RNA was evaluated by TaqMan assays (Applied Biosystems). Relative expression of pancreatic factors was determined using Power SYBR Green PCR Master Mix (Applied Bio systems). […]

[4] = human islets in culture for 6 months, Isx for 1-2 days (40 μM, FIG. 1A)
[5] = islets in culture for one year, 40 μM Isx 2-8 days
[6] = 24 h exposure, 5-80 μM Isx (FIG. 2A)

O=C(NC1CC1)c1cc(-c2cccs2)on1 [Isx, N-cyclopropyl-5-(thiophen-2-yl)isoxazole-3-carboxamide]
glucagon mRNA decrease [1, 4]: ~80% | preproinsulin mRNA [1, 4]: large increase | PCNA and Oct4 mRNA expression ([1]; islets in culture for one year): Neither PCNA, an indicator of proliferation, nor Oct4, a factor associated with stem cells, showed consistent or substantial changes in mRNA expression | increases in PDX-1, the Hnfs, and Isl1 mRNA [1, 5]: relatively small | increases in the other factors (mRNA; other than PDX-1, the Hnfs, Isl1) [1, 5]: more than 10 fold | Preproinsulin mRNA increase ([1]; islets in culture for one year, after several days of Isx exposure (FIG. 1D)): ≥ 50 fold | Preproinsulin mRNA increase ([1]; islets in culture for one year, at 24 h (FIG. 1D)): 10 fold | expression of glucokinase and Glut2 ([1]; islets in culture for one year, peaking after 4 days of exposure): increased markedly | ERK1/2 activation, time course ([2]; 20 μM Isx, 15 min to 24 h (FIG. 6)): biphasic effect | MafA expression [2, 6]: increased substantially | PDX-1 expression [2, 6]: little if any change | immunoreactive BETA2 [2, 6]: increased at all concentrations | Acetylation of histone H3 and H4 ([2]; MIN6 cells treated with Isx (FIG. 2A, FIG. 4A)): increased; also recorded: marked effect | ERK1/2 phosphorylation ([2]; following 24 h of exposure): detectable | increase in preproinsulin mRNA ([3]; Isx 24 h (FIG. 2B)): ≤ 4 fold | concentration for optimal activation of endogenous insulin gene expression ([3]; MIN6 cells (FIG. 12)): 20 µM
